Like-named read-outs stand apart in the source and are kept apart here.
Tests used:
[1] = target: T1, AEA-DA lipid probe targets in Neuro2a cells (Mus musculus, UniProt O35887)
T1 sequence (O35887 20-315): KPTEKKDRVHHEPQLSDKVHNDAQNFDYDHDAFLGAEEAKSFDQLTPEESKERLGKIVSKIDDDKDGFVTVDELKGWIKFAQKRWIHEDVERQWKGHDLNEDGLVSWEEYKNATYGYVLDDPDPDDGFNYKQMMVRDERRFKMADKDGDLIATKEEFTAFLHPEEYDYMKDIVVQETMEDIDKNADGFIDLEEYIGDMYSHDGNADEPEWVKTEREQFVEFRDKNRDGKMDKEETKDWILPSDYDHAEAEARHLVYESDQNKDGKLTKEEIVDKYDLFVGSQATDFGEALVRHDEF

[2] = target: T2, AEA-DA lipid probe targets in Neuro2a cells (Mus musculus, UniProt O88325)
T2 sequence (O88325 22-739): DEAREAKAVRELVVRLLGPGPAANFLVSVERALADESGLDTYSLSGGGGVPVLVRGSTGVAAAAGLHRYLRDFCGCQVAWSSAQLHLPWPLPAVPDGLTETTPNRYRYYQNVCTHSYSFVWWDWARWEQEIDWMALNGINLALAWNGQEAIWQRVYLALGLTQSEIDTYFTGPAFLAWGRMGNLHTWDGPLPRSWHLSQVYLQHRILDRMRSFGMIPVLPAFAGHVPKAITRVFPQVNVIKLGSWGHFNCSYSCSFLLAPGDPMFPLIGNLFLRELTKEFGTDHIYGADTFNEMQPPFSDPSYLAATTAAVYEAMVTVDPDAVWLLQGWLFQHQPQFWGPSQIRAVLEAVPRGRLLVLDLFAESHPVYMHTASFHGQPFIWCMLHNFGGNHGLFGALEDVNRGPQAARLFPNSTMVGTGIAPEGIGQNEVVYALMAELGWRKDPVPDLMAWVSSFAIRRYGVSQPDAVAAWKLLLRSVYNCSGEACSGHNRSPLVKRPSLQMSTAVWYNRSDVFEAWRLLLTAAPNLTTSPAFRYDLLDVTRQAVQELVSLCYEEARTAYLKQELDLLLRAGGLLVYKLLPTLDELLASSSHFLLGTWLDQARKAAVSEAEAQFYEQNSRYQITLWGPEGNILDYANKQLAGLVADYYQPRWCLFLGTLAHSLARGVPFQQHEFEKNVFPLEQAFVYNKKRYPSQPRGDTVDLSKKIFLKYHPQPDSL

[3] = target: AEA-DA lipid probe targets in Neuro2a cells (Mus musculus, UniProt P15331)
[4] = target: T3, AEA-DA lipid probe targets in Neuro2a cells (Mus musculus, UniProt P48678)
T3 sequence (P48678 1-665): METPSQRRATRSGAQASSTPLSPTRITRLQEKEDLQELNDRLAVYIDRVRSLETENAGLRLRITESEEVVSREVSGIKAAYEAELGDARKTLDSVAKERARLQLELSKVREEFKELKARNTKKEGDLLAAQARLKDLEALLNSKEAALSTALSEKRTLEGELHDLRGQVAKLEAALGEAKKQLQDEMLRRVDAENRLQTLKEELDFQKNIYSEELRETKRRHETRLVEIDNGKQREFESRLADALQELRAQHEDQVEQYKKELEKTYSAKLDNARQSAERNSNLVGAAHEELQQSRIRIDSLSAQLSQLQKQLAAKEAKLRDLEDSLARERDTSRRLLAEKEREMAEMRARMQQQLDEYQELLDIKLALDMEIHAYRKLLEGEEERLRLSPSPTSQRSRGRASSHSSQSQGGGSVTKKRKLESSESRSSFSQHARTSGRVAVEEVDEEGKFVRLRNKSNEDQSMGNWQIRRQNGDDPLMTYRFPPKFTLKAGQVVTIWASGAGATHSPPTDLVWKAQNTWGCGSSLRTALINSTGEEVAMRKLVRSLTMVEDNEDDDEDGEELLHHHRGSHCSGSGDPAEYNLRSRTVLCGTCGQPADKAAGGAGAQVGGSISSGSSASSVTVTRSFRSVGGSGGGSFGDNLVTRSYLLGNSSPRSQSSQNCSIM

[5] = target: AEA-DA lipid probe targets in Neuro2a cells (Mus musculus, UniProt Q62261)
[6] = target: T4, AEA-DA lipid probe targets in Neuro2a cells (Mus musculus, UniProt Q80ZW2)
T4 sequence (Q80ZW2 22-207): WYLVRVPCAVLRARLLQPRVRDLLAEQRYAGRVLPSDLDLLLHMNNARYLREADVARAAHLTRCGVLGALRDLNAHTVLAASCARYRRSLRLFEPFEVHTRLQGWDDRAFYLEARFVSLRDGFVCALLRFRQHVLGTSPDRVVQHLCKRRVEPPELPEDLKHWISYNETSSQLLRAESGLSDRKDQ

[7] = target: AEA-DA lipid probe targets in Neuro2a cells (Mus musculus, UniProt Q9D771)
[8] = target: T5, AEA-DA lipid probe targets in Neuro2a cells (Mus musculus, UniProt Q9WV54)
T5 sequence (Q9WV54 19-394): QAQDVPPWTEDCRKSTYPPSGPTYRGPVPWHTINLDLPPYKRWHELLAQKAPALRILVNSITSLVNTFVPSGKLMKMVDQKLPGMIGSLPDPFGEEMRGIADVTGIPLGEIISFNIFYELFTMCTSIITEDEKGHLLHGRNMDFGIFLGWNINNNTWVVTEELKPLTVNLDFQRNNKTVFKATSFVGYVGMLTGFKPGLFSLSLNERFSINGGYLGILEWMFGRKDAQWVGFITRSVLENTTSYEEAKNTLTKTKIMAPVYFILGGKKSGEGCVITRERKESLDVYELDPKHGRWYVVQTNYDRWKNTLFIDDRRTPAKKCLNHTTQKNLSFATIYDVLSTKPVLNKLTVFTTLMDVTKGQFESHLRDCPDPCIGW

AEA-DA lipid probe targets in Neuro2a cells (Mus musculus, UniProt P15331), sequence (P15331 whole entry): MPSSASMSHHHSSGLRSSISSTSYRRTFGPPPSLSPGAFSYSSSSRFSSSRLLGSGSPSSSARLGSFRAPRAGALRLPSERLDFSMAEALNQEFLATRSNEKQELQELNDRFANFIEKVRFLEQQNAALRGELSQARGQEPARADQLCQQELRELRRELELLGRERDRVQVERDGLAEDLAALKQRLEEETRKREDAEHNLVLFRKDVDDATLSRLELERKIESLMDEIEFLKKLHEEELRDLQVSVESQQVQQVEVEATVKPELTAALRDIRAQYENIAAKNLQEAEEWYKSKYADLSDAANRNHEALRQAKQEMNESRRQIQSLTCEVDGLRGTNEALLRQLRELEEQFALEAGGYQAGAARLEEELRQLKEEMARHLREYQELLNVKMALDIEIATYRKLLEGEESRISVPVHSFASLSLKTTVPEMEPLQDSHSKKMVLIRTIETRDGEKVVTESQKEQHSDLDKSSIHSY
AEA-DA lipid probe targets in Neuro2a cells (Mus musculus, UniProt Q9D771), sequence (Q9D771 whole entry): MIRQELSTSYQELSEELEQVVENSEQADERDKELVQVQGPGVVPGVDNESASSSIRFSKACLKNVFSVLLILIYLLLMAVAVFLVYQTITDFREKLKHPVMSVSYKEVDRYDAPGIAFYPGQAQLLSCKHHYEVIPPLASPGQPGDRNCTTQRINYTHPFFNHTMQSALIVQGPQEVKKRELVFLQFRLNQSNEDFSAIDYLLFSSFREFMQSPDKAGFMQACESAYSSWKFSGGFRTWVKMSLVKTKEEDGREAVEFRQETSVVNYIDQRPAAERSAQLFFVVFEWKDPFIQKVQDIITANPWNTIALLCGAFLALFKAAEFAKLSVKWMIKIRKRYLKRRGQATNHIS
AEA-DA lipid probe targets in Neuro2a cells (Mus musculus, UniProt Q62261), sequence (Q62261 whole entry): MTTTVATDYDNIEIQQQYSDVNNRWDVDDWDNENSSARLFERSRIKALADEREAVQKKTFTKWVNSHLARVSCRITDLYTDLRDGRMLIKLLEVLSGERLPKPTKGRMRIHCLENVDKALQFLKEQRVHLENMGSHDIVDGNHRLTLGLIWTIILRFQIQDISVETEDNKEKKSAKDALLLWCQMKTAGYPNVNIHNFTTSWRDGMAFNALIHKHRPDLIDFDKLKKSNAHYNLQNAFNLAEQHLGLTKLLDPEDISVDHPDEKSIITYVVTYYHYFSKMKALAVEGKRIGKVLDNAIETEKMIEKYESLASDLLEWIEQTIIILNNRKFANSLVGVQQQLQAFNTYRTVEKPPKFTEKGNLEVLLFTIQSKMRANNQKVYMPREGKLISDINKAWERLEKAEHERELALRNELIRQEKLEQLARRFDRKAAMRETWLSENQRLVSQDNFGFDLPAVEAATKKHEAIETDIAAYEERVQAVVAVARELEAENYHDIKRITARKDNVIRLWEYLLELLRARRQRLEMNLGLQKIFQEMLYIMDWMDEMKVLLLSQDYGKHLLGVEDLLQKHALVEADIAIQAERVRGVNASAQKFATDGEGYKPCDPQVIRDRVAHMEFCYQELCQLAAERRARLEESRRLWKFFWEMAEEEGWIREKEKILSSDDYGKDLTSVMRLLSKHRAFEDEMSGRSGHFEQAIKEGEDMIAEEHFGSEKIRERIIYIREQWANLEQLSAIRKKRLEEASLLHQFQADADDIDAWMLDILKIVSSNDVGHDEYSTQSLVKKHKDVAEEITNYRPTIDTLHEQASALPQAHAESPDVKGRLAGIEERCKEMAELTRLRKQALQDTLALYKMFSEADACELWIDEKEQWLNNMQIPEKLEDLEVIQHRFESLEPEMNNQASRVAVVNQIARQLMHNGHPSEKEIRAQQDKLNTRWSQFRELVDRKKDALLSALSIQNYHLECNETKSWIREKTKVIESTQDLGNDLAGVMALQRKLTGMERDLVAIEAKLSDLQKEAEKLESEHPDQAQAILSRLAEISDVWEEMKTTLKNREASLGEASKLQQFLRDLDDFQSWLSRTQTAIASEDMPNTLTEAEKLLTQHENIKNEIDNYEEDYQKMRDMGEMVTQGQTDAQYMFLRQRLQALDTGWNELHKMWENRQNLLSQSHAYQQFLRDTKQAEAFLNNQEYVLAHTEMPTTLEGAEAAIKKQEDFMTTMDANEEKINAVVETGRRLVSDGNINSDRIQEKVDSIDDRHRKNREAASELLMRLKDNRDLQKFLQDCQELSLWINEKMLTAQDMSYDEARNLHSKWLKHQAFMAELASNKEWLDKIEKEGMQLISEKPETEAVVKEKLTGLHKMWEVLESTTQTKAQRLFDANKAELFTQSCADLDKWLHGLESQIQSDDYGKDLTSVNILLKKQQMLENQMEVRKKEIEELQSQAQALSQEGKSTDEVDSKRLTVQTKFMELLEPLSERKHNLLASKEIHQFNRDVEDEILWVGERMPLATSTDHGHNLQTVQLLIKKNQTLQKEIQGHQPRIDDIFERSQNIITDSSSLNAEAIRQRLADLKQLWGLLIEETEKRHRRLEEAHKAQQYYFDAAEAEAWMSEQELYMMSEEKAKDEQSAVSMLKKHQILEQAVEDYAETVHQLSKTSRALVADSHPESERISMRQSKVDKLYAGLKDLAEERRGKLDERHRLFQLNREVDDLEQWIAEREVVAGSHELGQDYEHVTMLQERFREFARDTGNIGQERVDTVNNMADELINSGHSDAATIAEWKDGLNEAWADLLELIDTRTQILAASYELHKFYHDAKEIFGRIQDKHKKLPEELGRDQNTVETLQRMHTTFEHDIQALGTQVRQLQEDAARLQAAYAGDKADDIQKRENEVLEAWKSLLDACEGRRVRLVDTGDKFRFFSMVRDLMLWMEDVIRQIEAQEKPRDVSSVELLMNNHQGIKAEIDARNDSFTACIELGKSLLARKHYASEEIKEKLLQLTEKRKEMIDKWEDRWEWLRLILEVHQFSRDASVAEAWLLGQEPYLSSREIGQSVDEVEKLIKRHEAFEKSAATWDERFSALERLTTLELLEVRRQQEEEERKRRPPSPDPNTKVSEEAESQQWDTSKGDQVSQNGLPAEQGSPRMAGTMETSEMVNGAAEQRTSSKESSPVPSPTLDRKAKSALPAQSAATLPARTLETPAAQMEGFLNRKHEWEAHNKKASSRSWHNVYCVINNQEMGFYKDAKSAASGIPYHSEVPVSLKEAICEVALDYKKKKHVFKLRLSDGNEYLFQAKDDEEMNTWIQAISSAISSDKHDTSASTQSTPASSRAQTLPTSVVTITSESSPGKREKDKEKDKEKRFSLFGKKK

SMILES: CCCCC/C=C\C/C=C\C/C=C\C/C=C\CCCC(=O)NCCO [AEA, anandamide, reference compound]
- SILAC ratio, Calu ([1]; competitor 200 μM): 1.0
- SILAC ratio Naglu ([2]; competitor 200 μM): 1.3
- SILAC ratio Prph ([3]; competitor 200 μM): 1.0
- SILAC ratio Lmna ([4]; competitor 200 μM): 1.1
- SILAC ratio Sptbn1 ([5]; competitor 200 μM): 1.1
- SILAC ratio Them6 ([6]; competitor 200 μM): 1.9
- SILAC ratio Tmem206 ([7]; competitor 200 μM): 1.2
- SILAC ratio Asah1 ([8]; competitor 200 μM): 0.8

SMILES: O=C(/C=C/c1cccnc1)NCCCCC1CCN(C(=O)c2ccccc2)CC1 [FK-866, reference compound]
- SILAC ratio, Calu ([1]; competitor 25 μM): 1.0
- SILAC ratio Naglu ([2]; competitor 25 μM): 1.3
- SILAC ratio Prph ([3]; competitor 25 μM): 1.2
- SILAC ratio Lmna ([4]; competitor 25 μM): 1.2
- SILAC ratio Sptbn1 ([5]; competitor 25 μM): 1.3
- SILAC ratio Them6 ([6]; competitor 25 μM): 1.0
- SILAC ratio Tmem206 ([7]; competitor 25 μM): 0.9
- SILAC ratio Asah1 ([8]; competitor 25 μM): 1.3

SMILES: CN1CCN(C(=O)c2c(-c3ccccc3)c3cc([N+](=O)[O-])ccc3n2C)CC1 [KML110, (1-Methyl-5-nitro-3-phenyl-1H-indol-2-yl)(4-methylpiperazin-1-yl)methanone]
- SILAC ratio, Calu ([1]; competitor 25 μM): 1.1
- SILAC ratio Naglu ([2]; competitor 25 μM): 1.4
- SILAC ratio Prph ([3]; competitor 25 μM): 1.1
- SILAC ratio Lmna ([4]; competitor 25 μM): 1.3
- SILAC ratio Sptbn1 ([5]; competitor 25 μM): 1.2
- SILAC ratio Them6 ([6]; competitor 25 μM): 1.3
- SILAC ratio Tmem206 ([7]; competitor 25 μM): 1.2
- SILAC ratio Asah1 ([8]; competitor 25 μM): 1.2

SMILES: CN1CCN(C(=O)c2[nH]c3ccc([N+](=O)[O-])cc3c2-c2ccccc2)CC1 [MJN228, (4-Methylpiperazin-1-yl)(5-nitro-3-phenyl-1H-indol-2-yl)methanone]
- SILAC ratio, Calu ([1]; competitor 10 μM): 1.1
- SILAC ratio, Calu ([1]; competitor 25 μM): 1.5
- SILAC ratio, Calu ([1]; competitor 100 μM): 1.8
- SILAC ratio Naglu ([2]; competitor 10 μM): 1.4
- SILAC ratio Naglu ([2]; competitor 25 μM): 1.3
- SILAC ratio Naglu ([2]; competitor 50 μM): 1.9
- SILAC ratio Naglu ([2]; competitor 100 μM): 1.7
- SILAC ratio Prph ([3]; competitor 10 μM): 1.0
- SILAC ratio Prph ([3]; competitor 25 μM): 1.2
- SILAC ratio Prph ([3]; competitor 50 μM): 0.7
- SILAC ratio Prph ([3]; competitor 100 μM): 0.9
- SILAC ratio Lmna ([4]; competitor 10 μM): 1.3
- SILAC ratio Lmna ([4]; competitor 25 μM): 1.1
- SILAC ratio Lmna ([4]; competitor 50 μM): 1.3
- SILAC ratio Lmna ([4]; competitor 100 μM): 1.5
- SILAC ratio Sptbn1 ([5]; competitor 10 μM): 1.0
- SILAC ratio Sptbn1 ([5]; competitor 25 μM): 1.2
- SILAC ratio Sptbn1 ([5]; competitor 100 μM): 1.3
- SILAC ratio Them6 ([6]; competitor 10 μM): 1.2
- SILAC ratio Them6 ([6]; competitor 25 μM): 1.3
- SILAC ratio Them6 ([6]; competitor 100 μM): 1.3
- SILAC ratio Tmem206 ([7]; competitor 10 μM): 1.1
- SILAC ratio Tmem206 ([7]; competitor 25 μM): 1.3
- SILAC ratio Tmem206 ([7]; competitor 100 μM): 0.7
- SILAC ratio Asah1 ([8]; competitor 10 μM): 1.4
- SILAC ratio Asah1 ([8]; competitor 25 μM): 1.6
- SILAC ratio Asah1 ([8]; competitor 50 μM): 2.2
- SILAC ratio Asah1 ([8]; competitor 100 μM): 2.1

SMILES: C=CCN(C)CCCCCCOc1ccc(C(=O)c2ccc(Br)cc2)c(F)c1 [Ro 48-8071, reference compound]
- SILAC ratio, Calu ([1]; competitor 25 μM): 0.9
- SILAC ratio Naglu ([2]; competitor 25 μM): 0.3
- SILAC ratio Prph ([3]; competitor 25 μM): 0.8
- SILAC ratio Lmna ([4]; competitor 25 μM): 1.1
- SILAC ratio Sptbn1 ([5]; competitor 25 μM): 1.0
- SILAC ratio Them6 ([6]; competitor 25 μM): 1.0
- SILAC ratio Tmem206 ([7]; competitor 25 μM): 0.6
- SILAC ratio Asah1 ([8]; competitor 25 μM): 1.0
